Experimental data reported in US11168089B2, “Fused pyrimidine derivatives as A2A / A2B inhibitors” (Incyte Corporation, priority 2018, dated 2021).

Legend:
Adenosine A2A receptor = Adenosine A2A receptor (Homo sapiens (Human), UniProt P29274); test: A2A Tag-Lite HTRF assay; type: binding; details: Tag-Lite Adenosine A2A labeled cells, displacement of A2A Receptor Red antagonist fluorescent ligand 12.5 nM; read-out: A2A_Ki
Excerpt: Example C. A2A Tag-Lite® HTRF Assay
The final concentration of DMSO was 1%.

[1] = molecular target: human adenosine A2B receptor (Homo sapiens (Human), UniProt P29275); test: Adenosine A2B Receptor Cyclic AMP GS Assay; type: cell-based; details: HEK-293 cells expressing human A2B receptor, agonist NECA 12 nM, cAMP accumulation; read-out: A2B_cAMP_EC50
Sequence of human adenosine A2B receptor (P29275 whole entry): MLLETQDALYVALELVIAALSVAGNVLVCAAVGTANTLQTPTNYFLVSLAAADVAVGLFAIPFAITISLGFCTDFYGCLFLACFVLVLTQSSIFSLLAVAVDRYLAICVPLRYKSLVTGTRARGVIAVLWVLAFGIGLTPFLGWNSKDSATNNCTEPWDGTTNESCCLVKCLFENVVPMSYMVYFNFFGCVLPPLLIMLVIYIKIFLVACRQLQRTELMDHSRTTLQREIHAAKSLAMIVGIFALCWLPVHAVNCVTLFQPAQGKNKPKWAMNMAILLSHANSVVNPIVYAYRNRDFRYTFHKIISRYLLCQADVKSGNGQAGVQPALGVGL
Method: Example B. Adenosine A2B Receptor Cyclic AMP GS Assay
Stably transfected HEK-293 cells expressing the human adenosine A2B receptor (Perkin Elmer) were maintained in MEM culture medium with 10% FBS and 100 μg/mL Geneticin (Life Technologies). 18 to 24 hours prior to assay, geneticin was removed from culture. The cisbio cAMP-GS Dynamic kit utilizing the FRET (Fluorescence Resonance Energy Transfer) technology was used to measure cAMP accumulation in the cells. Compounds of the present disclosure at an appropriate concentration were mixed with 10000 cells/well in white 96 well half area plates (Perkin Elmer) for 30 min at room temperature gently shaking. Agonist, NECA (R&D Technologies) at 12 nM was added to each well for 60 min at room temperature gently shaking. Detection reagents, d2-labeled cAMP (acceptor) and anti-cAMP cryptate (donor) were added to each well for 60 min at RT gently shaking. Plates were read on Pherastar (BMG Labtech), fluorescence ratio 665/620 was calculated and EC50 determination was performed by fitting the curve of percent of control versus the log of the compound concentration using GraphPad Prism.

Sequence of Adenosine A2A receptor (P29274 whole entry): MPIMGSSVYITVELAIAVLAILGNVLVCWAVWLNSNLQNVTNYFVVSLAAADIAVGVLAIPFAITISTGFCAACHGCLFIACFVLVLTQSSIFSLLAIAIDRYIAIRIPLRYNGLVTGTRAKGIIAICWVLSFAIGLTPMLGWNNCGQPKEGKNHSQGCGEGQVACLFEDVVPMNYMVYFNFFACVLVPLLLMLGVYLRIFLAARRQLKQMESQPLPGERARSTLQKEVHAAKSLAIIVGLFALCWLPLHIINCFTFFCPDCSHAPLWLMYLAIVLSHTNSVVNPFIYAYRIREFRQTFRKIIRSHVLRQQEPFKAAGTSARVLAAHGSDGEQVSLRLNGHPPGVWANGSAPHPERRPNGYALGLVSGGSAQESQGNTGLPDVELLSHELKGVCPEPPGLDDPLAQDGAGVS

`CN1CCC(NCc2cccc(F)c2Cc2nc3cc(-c4cccc(C#N)c4F)nc(N)n3n2)C1=O` (stereo not drawn) [Example 29, 3-(5-Amino-2-(2-fluoro-6-(((1-methyl-2-oxopyrrolidin-3-yl)amino)methyl)benzyl)-[1,2,4]triazolo[1,5-c]pyrimidin-7-yl)-2-fluorobenzonitrile] gave a Ki (Adenosine A2A receptor) of less than 10 nM and an EC50 [1] of 10 to 100 nM.

`CCN(Cc1cccc(F)c1Cc1nc2cc(-c3cccc(C#N)c3F)nc(N)n2n1)C1CCN(CC(=O)O)C1=O` (stereo not drawn) [Example 30, 2-(3-((2-((5-Amino-7-(3-cyano-2-fluorophenyl)-[1,2,4]triazolo[1,5-c]pyrimidin-2-yl)methyl)-3-fluorobenzyl)(ethyl)amino)-2-oxopyrrolidin-1-yl)acetic acid] showed a Ki (Adenosine A2A receptor) of less than 10 nM and an EC50 [1] of less than 10 nM.

In the case of `CCN(Cc1cccc(F)c1Cc1nc2cc(-c3cccc(C#N)c3F)nc(N)n2n1)C1CCN(C)C1=O` (stereo not drawn) [Example 31, 3-(5-Amino-2-(2-((ethyl(1-methyl-2-oxopyrrolidin-3-yl)amino)methyl)-6-fluorobenzyl)-[1,2,4]triazolo[1,5-c]pyrimidin-7-yl)-2-fluorobenzonitrile], the Ki (Adenosine A2A receptor) is reported as less than 10 nM and the EC50 [1] is reported as less than 10 nM.

`CCN(Cc1cccc(F)c1Cc1nc2cc(-c3cccc(C#N)c3F)nc(N)n2n1)[C@@H]1CCNC1=O` [Example 32, (R)-3-(5-Amino-2-(2-((ethyl(2-oxopyrrolidin-3-yl)amino)methyl)-6-fluorobenzyl)-[1,2,4]triazolo[1,5-c]pyrimidin-7-yl)-2-fluorobenzonitrile] showed a Ki (Adenosine A2A receptor) of less than 10 nM and an EC50 [1] of 10 to 100 nM.

`N#Cc1cccc(-c2cc3nc(NCc4cccc(-c5cnn(C6CCNCC6)c5)n4)nn3c(N)n2)c1F` [Example 33, 3-(5-Amino-2-(((6-(1-(piperidin-4-yl)-1H-pyrazol-4-yl)pyridin-2-yl)methyl)amino)-[1,2,4]triazolo[1,5-c]pyrimidin-7-yl)-2-fluorobenzonitrile] gave a Ki (Adenosine A2A receptor) of less than 10 nM and an EC50 [1] of less than 10 nM.

For `N#Cc1cccc(-c2cc3nc(NCc4cccc(-c5cnn(CCN6CCOCC6)c5)n4)nn3c(N)n2)c1F` [Example 34, 3-(5-Amino-2-(((6-(1-(2-morpholinoethyl)-1H-pyrazol-4-yl)pyridin-2-yl)methyl)amino)-[1,2,4]triazolo[1,5-c]pyrimidin-7-yl)-2-fluorobenzonitrile], the Ki (Adenosine A2A receptor) was less than 10 nM and the EC50 [1] was 10 to 100 nM.
